“Also recorded” adds a separate entry of the source. Like-named read-outs stand apart in the source and are kept apart here.
Columns and labels:
[1] = tested on: extracellular CA in intact hypoxic MDA-MB-231 cells; details: 1 μM; cited from earlier work
HeLa cells [2] = assay: Extracellular acidification (pH) assay; assay type: cell-based, human; details: for hypoxia-induced extracellular acidification: hypoxia 0.2% O2, 72 h, 5–50 μM; for effect on extracellular acidification under normoxia: normoxia 21% O2, 72 h
[3] = tested on: CA activity in hypoxic HeLa CA IX KO cells; assay: CA catalytic activity via MS gas-analysis, CA IX knockout cells; assay type: cell-based, human; details: both HeLa CA IX KO lines
Method: The reaction sequence of ^18O loss from ^13C^18O^18O (m/z = 49) over the intermediate product ^13C^18O^16O (m/z = 47) and the end product ^13C^16O^16O (m/z = 45) was monitored with a quadrupole mass spectrometer (OmniStar GSD 320; Pfeiffer Vacuum, Asslar, Germany). The relative ^18O enrichment was calculated from the measured 45, 47, and 49 m/z abundance as a function of time according to: log enrichment = log (49×100/(49+47+45)). For the calculation of CA activity, the rate of ^18O depletion was obtained from the linear slope of the log enrichment over the time, using OriginPro 8.6 (OriginLab Corporation). The rate was compared with the corresponding rate of the non-catalyzed reaction. Enzyme activity in units (U) was calculated from these two values as defined by Badger and Price [59]. […] For every measurement, the non-catalyzed reaction was determined for 6 min in the presence of inhibitor, before cell suspension was added to the measuring cuvette and the catalyzed reaction was determined for 8 min. […] IC50 values were determined by Hill equation using OriginPro 8.6. To investigate specificity of the inhibitors in HeLa WT and HeLa CA IX KO cells, the non-catalyzed reaction was determined for 6 min in the absence of inhibitor, before a suspension of 5 × 10^6 cells was added to the measuring cuvette. […]

AsPC-1 cells [4] = assay: alamarBlue cell viability assay; assay type: cell-based; details: Homo sapiens, ASPC1, 48 h
Method: (§3) Cytotoxicity of inhibitors was determined by the alamarBlue® cell viability assay (Life Technologies). […] Briefly, cells were seeded in 96-well plates and allowed to attach overnight in normoxia. […] After 72 h, cells were incubated with 10% alamarBlue® for 2 h under normoxia at 37° C. The fluorescence signal was measured using the multi-mode microplate reader (FLUOstar® Omega, BMG Labtech) at 580 nm (excitation wavelength 540 nm). Response to treatments was quantified by evaluating EC50 values (concentration of inhibitor that leads to half-maximum viability response determined by Hill fit).

HeLa cells [5] = assay: alamarBlue cell viability assay; assay type: cell-based, human; details: 72 h; for EC50: Homo sapiens, HeLa
Method: as §3

A549 cells = assay: alamarBlue cell viability assay; assay type: cell-based; details: Homo sapiens, A549, 72 h
Method: as §3

MDA-MB-231 cells = assay: alamarBlue cell viability assay; assay type: cell-based; details: Homo sapiens, MDA-MB-231, 72 h
Method: as §3

H460 cells [6] = assay: alamarBlue cell viability assay; assay type: cell-based; details: Homo sapiens, NCI-H460, 72 h
Method: as §3

CA IX [7] = biological target: T1, CA IX (Homo sapiens, UniProt Q16790); assay: Stopped-flow CO2 hydration inhibition assay (SFA); assay type: biochemical; details: pH 7.5, 25° C, value in parentheses
T1 construct: 12 recombinant catalytic domains of human active CA isoforms as determined by FTSA
Method: (§1) The enzymatic activity of carbonic anhydrase isoforms and their inhibition was determined by the stopped-flow CO2 hydration assay where the formed acid was followed by the absorbance change of a pH indicator. The Applied Photophysics SX.18MV-R stopped-flow spectrometer was used to measure the absorbance change of Phenol-Red pH indicator at 557 nm. Saturated CO2 solution was prepared by bubbling the CO2 gas in MilliQ water at 25° C for 1 h. Experiments were performed at 25° C using 25 mM Hepes buffer containing 50 mM NaCl (pH 7.5), 0–10 μM compound with the final 0.4% (v/v) DMSO concentration. The final enzyme concentration was 10 nM for CA IX and 20 nM for CA XII. Raw curves of absorbance change were analyzed using Origin 8.1 (OriginLab Corporation) and the slope values were used to evaluate the rates of CO2 hydration. Spontaneous CO2 hydration rate was used as a zero value, while the CA catalyzed reaction rate - as a maximum value.

H460 cells [8] = assay: Extracellular acidification (pH) assay; assay type: cell-based, human; details: H460, hypoxia 0.2% O2, 72 h
CA XIII = biological target: T2, CA XIII (Homo sapiens, UniProt Q8N1Q1); assay: Fluorescent thermal shift assay (FTSA); assay type: binding; details: pH 7.0, 37° C
T2 construct: 12 recombinant catalytic domains of human active CA isoforms as determined by FTSA
Method: (§2) The binding affinity of synthesized compounds to recombinant human CAs was measured by the fluorescent thermal shift assay (FTSA) where the thermal stabilization of the protein by the compound was determined by following the fluorescence dependence on temperature at various added compound concentrations. The melting temperature (Tm) of CA was measured using the Corbett Rotor-Gene 6000 instrument (QIAGEN Rotor-Gene Q, excitation at 365 ± 20 nm, emission detection at 460 ± 15 nm). The protein was heated from 25 to 99° C at a rate of 1° C/min and the fluorescence change of the solvatochromic dye 8-anilino-1-naphthalene sulfonate (ANS) was followed. The samples consisted of 5–10 μM CA, 0–200 μM ligand, 50 μM ANS, and 50 mM sodium phosphate buffer containing 100 mM NaCl at pH 7.0, with the final DMSO concentration of 2% (v/v). Protein unfolding profiles and the melting temperatures were determined at each ligand concentration while recording extrinsic fluorescence of ANS. Data analysis was performed as previously described. All experiments were repeated at least twice.

CA XII [9] = biological target: T3, CA XII (Homo sapiens, UniProt O43570); assay: Fluorescent thermal shift assay (FTSA); assay type: binding; details: pH 7.0, 37° C
T3 construct: 12 recombinant catalytic domains of human active CA isoforms as determined by FTSA
Method: as §2

CA VI = biological target: T4, CA VI (Homo sapiens, UniProt P23280); assay: Fluorescent thermal shift assay (FTSA); assay type: binding; details: pH 7.0, 37° C
T4 construct: 12 recombinant catalytic domains of human active CA isoforms as determined by FTSA
Method: as §2

CA VA = biological target: T5, CA VA (Homo sapiens, UniProt P35218); assay: Fluorescent thermal shift assay (FTSA); assay type: binding; details: pH 7.0, 37° C
T5 construct: 12 recombinant catalytic domains of human active CA isoforms as determined by FTSA
Method: as §2

CA III = biological target: T6, CA III (Homo sapiens, UniProt P07451); assay: Fluorescent thermal shift assay (FTSA); assay type: binding; details: pH 7.0, 37° C
T6 construct: 12 recombinant catalytic domains of human active CA isoforms as determined by FTSA
Method: as §2

CA VII = biological target: T7, CA VII (Homo sapiens, UniProt P43166); assay: Fluorescent thermal shift assay (FTSA); assay type: binding; details: pH 7.0, 37° C
T7 construct: 12 recombinant catalytic domains of human active CA isoforms as determined by FTSA
Method: as §2

CA IV = biological target: T8, CA IV (Homo sapiens, UniProt P22748); assay: Fluorescent thermal shift assay (FTSA); assay type: binding; details: pH 7.0, 37° C
T8 construct: 12 recombinant catalytic domains of human active CA isoforms as determined by FTSA
Method: as §2

CA XIV = biological target: T9, CA XIV (Homo sapiens, UniProt Q9ULX7); assay: Fluorescent thermal shift assay (FTSA); assay type: binding; details: pH 7.0, 37° C
T9 construct: 12 recombinant catalytic domains of human active CA isoforms as determined by FTSA
Method: as §2

CA IX [10] = biological target: T1, CA IX; assay: Fluorescent thermal shift assay (FTSA); assay type: binding; details: pH 7.0, 37° C
Method: as §2

CA I = biological target: T10, CA I (Homo sapiens, UniProt P00915); assay: Fluorescent thermal shift assay (FTSA); assay type: binding; details: pH 7.0, 37° C
T10 construct: 12 recombinant catalytic domains of human active CA isoforms as determined by FTSA
Method: as §2

CA VB = biological target: T11, CA VB (Homo sapiens, UniProt Q9Y2D0); assay: Fluorescent thermal shift assay (FTSA); assay type: binding; details: pH 7.0, 37° C
T11 construct: 12 recombinant catalytic domains of human active CA isoforms as determined by FTSA
Method: as §2

CA II = biological target: T12, CA II (Homo sapiens, UniProt P00918); assay: Fluorescent thermal shift assay (FTSA); assay type: binding; details: pH 7.0, 37° C
T12 construct: 12 recombinant catalytic domains of human active CA isoforms as determined by FTSA
Method: as §2

H460 spheroids = assay: Clonogenic cell survival assay, 3D spheroids; assay type: cell-based, human; details: non-hypoxic (day 4) versus hypoxic (day 11) H460 spheroids, 5–15 μM, 24 h
Method: Clonogenic survival of HeLa cell monolayers was evaluated using cell densities applied in the extracellular acidification assay to determine the effect of inhibitors on the clonogenic cell survival while having the same acidification conditions. […] Then cells were trypsinized, reseeded in triplicate with known cell densities and allowed to form colonies for 14 days. […] Single cell suspensions were prepared and cells were plated in triplicate with known cell densities and allowed to form colonies for 14 days. […] Surviving fraction was normalized to vehicle (DMSO). To prepare plates for the growth of attachment-free H460 spheroids, autoclaved 1.5% w/v agarose (Sigma-Aldrich) was dispensed in the inner 60 wells of 96-well plates (50 μL/well) and left for polymerization at room temperature for 30 min. H460 cells were plated in modified 96-well plates to the surface of agarose menisci with a density of 500 cells/well. The DMEM was refreshed every two days. After 7 or 11 days in culture, spheroids were incubated with 20 μg/mL pimonidazole (PIMO, Hypoxyprobe-1, HP-1000, BioConnect) for 2 h at 37° C, collected and cryoconserved for immunofluorescence analysis (see below).

AsPC-1 cells [11] = assay: Extracellular acidification (pH) assay; assay type: cell-based, human; details: AsPC-1, hypoxia 0.2% O2, 72 h
CA XII [12] = biological target: T3, CA XII; assay: Stopped-flow CO2 hydration inhibition assay (SFA); assay type: biochemical; details: pH 7.5, 25° C, value in parentheses
Method: as §1

[13] = tested on: 4 investigated cell lines; assay: Extracellular acidification (pH) assay, cell line panel; assay type: cell-based, human; details: 50 μM, hypoxia 0.2% O2, 72 h
Method: HeLa, H460, MDA-MB-231, and AsPC-1 cells were cultured in DMEM (Lonza) supplemented with 10% FBS (Lonza), whereas A549 cells were grown in-house made analogous medium differing only by a lower amount of sodium bicarbonate (final concentration 10 mM). Cell densities for each cell line were optimized to get ~100% confluence at the end of experiment under normoxic and hypoxic (0.2% O2) conditions upon vehicle (0.05% DMSO) treatment. Such conditions were necessary to obtain the highest possible level of CA IX-dependent extracellular acidification. Cells were plated in 6 cm dishes and allowed to attach overnight in normoxia. […] Results are shown as a difference between the pH of medium in the control plate (without seeded cells) and the pH of medium in the targeted plate (cells exposed to the compound or vehicle).

[14] = 0.2% O2 (hypoxia), read-out: EC50
[15] = 21% O2 (normoxia), read-out: EC50
[16] = H460, 0.2% O2 (hypoxia), read-out: EC50
[17] = H460, 21% O2 (normoxia), read-out: EC50

T3 sequence (O43570 30-289 limits assumed): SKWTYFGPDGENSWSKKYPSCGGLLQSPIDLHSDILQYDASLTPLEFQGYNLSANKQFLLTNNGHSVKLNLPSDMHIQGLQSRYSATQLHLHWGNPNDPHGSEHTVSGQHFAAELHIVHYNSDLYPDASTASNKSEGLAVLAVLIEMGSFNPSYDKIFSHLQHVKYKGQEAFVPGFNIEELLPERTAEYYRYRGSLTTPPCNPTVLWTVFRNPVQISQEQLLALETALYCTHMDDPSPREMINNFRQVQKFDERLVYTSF
T8 sequence (P22748 21-285 limits assumed): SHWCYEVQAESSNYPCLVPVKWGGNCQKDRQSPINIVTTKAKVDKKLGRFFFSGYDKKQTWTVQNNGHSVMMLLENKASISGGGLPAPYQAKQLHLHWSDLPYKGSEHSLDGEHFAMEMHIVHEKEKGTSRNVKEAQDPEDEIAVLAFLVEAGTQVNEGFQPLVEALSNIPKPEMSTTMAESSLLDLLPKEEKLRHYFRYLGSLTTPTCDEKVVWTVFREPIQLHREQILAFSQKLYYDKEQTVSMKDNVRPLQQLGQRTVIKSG
T9 sequence (Q9ULX7 20-278 limits assumed): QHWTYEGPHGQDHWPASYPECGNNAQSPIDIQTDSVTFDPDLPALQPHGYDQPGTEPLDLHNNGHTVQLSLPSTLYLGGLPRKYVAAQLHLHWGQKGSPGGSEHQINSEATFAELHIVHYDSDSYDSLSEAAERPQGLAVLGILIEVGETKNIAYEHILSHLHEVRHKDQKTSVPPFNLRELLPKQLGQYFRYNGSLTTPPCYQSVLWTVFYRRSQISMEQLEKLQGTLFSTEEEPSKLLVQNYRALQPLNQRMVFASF
T10 sequence (P00915 4-261 limits assumed): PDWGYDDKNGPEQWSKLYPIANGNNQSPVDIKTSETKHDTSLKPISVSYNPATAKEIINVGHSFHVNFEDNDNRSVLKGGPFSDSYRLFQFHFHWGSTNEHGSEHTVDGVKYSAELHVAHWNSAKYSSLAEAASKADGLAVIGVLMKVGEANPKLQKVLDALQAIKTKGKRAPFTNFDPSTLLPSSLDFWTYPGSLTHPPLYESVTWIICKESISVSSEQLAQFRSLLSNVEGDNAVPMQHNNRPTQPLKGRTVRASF
T4 sequence (P23280 21-278 limits assumed): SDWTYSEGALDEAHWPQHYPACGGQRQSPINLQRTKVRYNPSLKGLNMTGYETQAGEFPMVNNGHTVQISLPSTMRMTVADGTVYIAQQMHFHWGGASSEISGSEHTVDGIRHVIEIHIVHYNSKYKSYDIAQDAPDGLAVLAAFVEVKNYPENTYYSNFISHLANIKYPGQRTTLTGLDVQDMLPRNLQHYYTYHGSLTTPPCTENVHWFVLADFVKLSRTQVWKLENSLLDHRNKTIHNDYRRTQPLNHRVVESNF
T7 sequence (P43166 5-262 limits assumed): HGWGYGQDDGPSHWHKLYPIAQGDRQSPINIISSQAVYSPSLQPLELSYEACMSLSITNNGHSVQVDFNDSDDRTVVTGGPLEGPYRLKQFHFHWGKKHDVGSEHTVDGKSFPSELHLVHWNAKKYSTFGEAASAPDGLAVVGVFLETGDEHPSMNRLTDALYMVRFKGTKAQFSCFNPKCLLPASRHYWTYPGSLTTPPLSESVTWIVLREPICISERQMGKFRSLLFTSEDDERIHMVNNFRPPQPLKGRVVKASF
T11 sequence (Q9Y2D0 37-296 limits assumed): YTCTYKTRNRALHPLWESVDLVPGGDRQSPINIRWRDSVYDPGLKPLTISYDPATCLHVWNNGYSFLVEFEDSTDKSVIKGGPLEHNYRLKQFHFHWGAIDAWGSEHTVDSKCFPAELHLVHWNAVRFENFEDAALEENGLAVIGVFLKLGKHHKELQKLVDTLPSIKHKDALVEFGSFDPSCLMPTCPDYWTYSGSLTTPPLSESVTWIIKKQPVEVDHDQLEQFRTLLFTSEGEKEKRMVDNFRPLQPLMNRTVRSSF
T2 sequence (Q8N1Q1 4-261 limits assumed): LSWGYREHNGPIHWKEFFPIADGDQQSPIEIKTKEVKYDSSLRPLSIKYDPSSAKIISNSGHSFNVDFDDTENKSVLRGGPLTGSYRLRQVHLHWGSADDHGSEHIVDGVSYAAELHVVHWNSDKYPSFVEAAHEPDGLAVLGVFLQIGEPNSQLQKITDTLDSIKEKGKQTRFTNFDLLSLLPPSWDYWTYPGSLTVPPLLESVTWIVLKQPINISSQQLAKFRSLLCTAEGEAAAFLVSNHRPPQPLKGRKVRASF
T6 sequence (P07451 3-259 limits assumed): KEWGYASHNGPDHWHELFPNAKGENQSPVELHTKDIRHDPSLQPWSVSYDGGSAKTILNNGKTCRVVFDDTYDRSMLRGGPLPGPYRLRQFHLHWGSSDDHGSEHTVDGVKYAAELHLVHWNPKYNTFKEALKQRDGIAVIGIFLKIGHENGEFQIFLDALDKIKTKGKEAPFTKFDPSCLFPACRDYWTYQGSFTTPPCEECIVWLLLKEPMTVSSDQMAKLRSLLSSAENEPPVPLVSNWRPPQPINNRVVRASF
T5 sequence (P35218 39-296 limits assumed): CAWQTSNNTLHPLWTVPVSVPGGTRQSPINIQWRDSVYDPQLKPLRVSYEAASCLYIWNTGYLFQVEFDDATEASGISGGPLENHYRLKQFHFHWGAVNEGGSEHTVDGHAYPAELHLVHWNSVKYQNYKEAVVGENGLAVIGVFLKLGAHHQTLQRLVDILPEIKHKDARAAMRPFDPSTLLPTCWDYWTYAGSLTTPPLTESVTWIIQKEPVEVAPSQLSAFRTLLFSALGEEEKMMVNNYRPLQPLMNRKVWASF

Structure (SMILES) | hypoxia-induced extracellular acidification (HeLa cells [2]) | effect on extracellular acidification under normoxia (HeLa cells [2]) | EC50 (HeLa cells [5]; [14]) | EC50 (HeLa cells [5]; [15]) | Ki (CA IX [7]) | EC50 (H460 cells [6]; [16]) | EC50 (H460 cells [6]; [17]) | Kd (CA XIII) | Kd (CA XII [9]) | Kd (CA VI) | Kd (CA VA) | Kd (CA III) | Kd (CA VII) | Kd (CA IV) | Kd (CA XIV) | Kd (CA IX [10]) | Kd (CA I) | Kd (CA VB) | Kd (CA II) | also measured
CC(=O)Nc1nnc(S(N)(=O)=O)s1 [acetazolamide] |  |  |  |  |  |  |  |  |  |  |  |  |  |  |  |  |  |  |  | Extracellular CA activity [1]: significantly reduced
NS(=O)(=O)c1c(F)c(F)c(SCCO)c(F)c1NC1CCCCCCC1 [VD12-09] | significantly (p < 0.05) reduced | negligible |  |  |  |  |  |  |  |  |  |  |  |  |  |  |  |  |  | CA activity after addition of inhibitor ([3]; 30 μM): did not alter CA activity; EC50 (AsPC-1 cells [4]; AsPC-1, 0.2% O2 (hypoxia)): 83.3 ± 5.8 µM; EC50 (AsPC-1 cells [4]; AsPC-1, 21% O2 (normoxia)): 100 ± 20 µM; EC50 (HeLa cells [5]; 0.2% O2 (hypoxia)): 46.9 ± 7 µM; EC50 (HeLa cells [5]; 21% O2 (normoxia)): 21.6 ± 4.1 µM; EC50 (A549 cells; A549, 0.2% O2 (hypoxia)): 98.8 ± 8.5 µM; EC50 (A549 cells; A549, 21% O2 (normoxia)): 33.8 ± 2.5 µM; EC50 (MDA-MB-231 cells; MDA-MB-231, 0.2% O2 (hypoxia)): 67.6 ± 7.1 µM; EC50 (MDA-MB-231 cells; MDA-MB-231, 21% O2 (normoxia)): 55.4 ± 6.6 µM; EC50 (H460 cells [6]; H460, 0.2% O2 (hypoxia)): 37 ± 7.6 µM; EC50 (H460 cells [6]; H460, 21% O2 (normoxia)): 17.8 ± 2.2 µM
NS(=O)(=O)c1c(F)c(F)c(SCCc2ccc(C(=O)O)cc2)c(F)c1NC1CCCCCCC1 [VR16-10, 4-(2-{[4-(Aminosulfonyl)-3-(cyclooctylamino)-2,5,6-tetrafluorophenyl]thio}ethyl)benzoic acid] |  |  | > 150 µM | 93.3 ± 5.8 µM | < 0.001 µM | > 150 µM | 83.3 ± 15.3 µM | 0.04 µM | 0.37 µM | 26.3 µM | 5 µM | ≥ 200 µM | 0.1 µM | 1.82 µM | 0.17 µM | 0.0002 µM | 5 µM | 0.1 µM | 1 µM | Cytotoxic ratio (CR) of selectivity to hypoxia (HeLa cells [5]; human, HeLa cells): > 0.62; hypoxia-induced extracellular acidification (H460 cells [8]): Dose-dependent reduction; also recorded: smallest, albeit significant (p < 0.05), impact
NS(=O)(=O)c1c(F)c(F)c(SCCc2ccc(C(=O)O)cc2)c(F)c1NC1CCCCCCCCCCC1 [VR16-09, 4-(2-{[4-(Aminosulfonyl)-3-(cyclododecylamino)-2,5,6-tetrafluorophenyl]thio}ethyl)benzoic acid] | significantly (p < 0.05) reduced | negligible | 40.8 ± 9.6 µM | 20.2 ± 4.3 µM | < 0.001 µM | 40 ± 9.6 µM | 19.3 ± 3.6 µM | 0.02 µM | 0.71 µM | ≥ 200 µM | ≥ 200 µM | ≥ 200 µM | 37 µM | ≥ 200 µM | 0.17 µM | 0.00016 µM | ≥ 200 µM | 45 µM | ≥ 200 µM | clonogenic survival of cells derived from spheroids (H460 spheroids): hypoxia-dependent effect on clonogenic survival; hypoxia-induced acidosis (AsPC-1 cells [11]): increased; CA activity after addition of inhibitor ([3]; 300 nM): did not alter CA activity; EC50 (AsPC-1 cells [4]; AsPC-1, 0.2% O2 (hypoxia), read-out: EC50): 160 ± 17 µM; EC50 (AsPC-1 cells [4]; AsPC-1, 21% O2 (normoxia), read-out: EC50): 153 ± 23 µM; Ki (CA XII [12]): 0.1 µM; EC50 (A549 cells; A549, 0.2% O2 (hypoxia), read-out: EC50): 76.7 ± 2.9 µM; EC50 (A549 cells; A549, 21% O2 (normoxia), read-out: EC50): 17 ± 1 µM; hypoxia-induced acidosis [13]: significantly reduced; EC50 (MDA-MB-231 cells; MDA-MB-231, 0.2% O2 (hypoxia), read-out: EC50): 84.2 ± 4.9 µM; EC50 (MDA-MB-231 cells; MDA-MB-231, 21% O2 (normoxia), read-out: EC50): 74.2 ± 3.8 µM
